As usually defined, the IC50 is the concentration that inhibits the measured activity by half.

Experimental findings from patent US8017612B2, “Piperazine compound and use thereof as a HCV polymerase inhibitor” (priority 2006, dated 2011) are described below.

Molecules are shown by their SMILES.

Experiment [1] deals with T1, HCV polymerase (NS5B) type 1a (Hepatitis C virus genotype 1a, UniProt P26664).
T1 construct: made in house; host or cells: Escherichia coli (by the 'similar method' of the 1b enzyme)
The experiment is described as follows: Assay of enzyme (HCV polymerase) inhibitory activity, type 1a enzyme. The experiment is classed as biochemical, HCV type 1a (cloned from the blood of patients). The conditions noted are these: HCV polymerase inhibitory activity (IC50), 1a, type 1a enzyme 1.5 μg/ml, 25° C., 60 min. In outline:
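Patient-derived type 1a NS5B (C-terminal 47-aa deletion, His-tagged, E. coli-expressed) at 1.5 μg/ml was reacted with 5 μg/ml 3′UTR-containing substrate RNA, 50 μM ATP/GTP/CTP, 2 μM UTP plus [3H]UTP, pH 7.5, 25° C for 60 min. TCA-precipitated RNA radioactivity was counted; IC50 from ± compound.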

The target of experiment [2] is T2, HCV polymerase (NS5B) type 1b (Hepatitis C virus genotype 1b, UniProt P26663).
T2 construct: a region encoding NS5B (J Virol 1991 March, 65(3), 1105-13, 544 amino acids after deletion of 47 amino acids on the C-terminal); 6xHis (C); made in house; host or cells: Escherichia coli
The experiment can be described thus: Assay of enzyme (HCV polymerase) inhibitory activity, type 1b enzyme. The note with it: HCV polymerase inhibitory activity (IC50), 1b, type 1b enzyme 0.5 μg/ml, 25° C., 60 min. The experiment is classed as biochemical, HCV BK strain (type 1b). In outline: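 NS5B from HCV BK strain (type 1b), C-terminal 47 aa deleted, C-terminal His6-tagged, E. coli-expressed, 0.5 μg/ml, with ~450 nt substrate RNA carrying the 3′ UTR (polyU, 3′X) at 5 μg/ml. Incubation 60 min at 25 °C with 50 μM ATP/GTP/CTP, 2 μM UTP plus [3H]UTP, pH 7.5 Tris.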

`CCC(F)(F)c1ccc(CNC(=O)[C@H]2CN(C(=O)Nc3ccnc(C(=O)OC(C)(C)C)c3)CCN2S(=O)(=O)c2ccc(OC(F)(F)F)cc2)cc1` [Example 491, 4-{[(R)-3-[4-(1,1-difluoro-propyl)-benzylcarbamoyl]-4-(4-trifluoromethoxy-benzenesulfonyl)-piperazine-1-carbonyl]-amino}-pyridine-2-carboxylic acid tert-butyl ester]: the IC50 in experiment [1] and in experiment [2] was less than 100 nM in each case.
Regarding `CC(=O)N1CCN(S(=O)(=O)c2ccc(C(C)C)cc2)[C@@H](C(=O)NCc2ccc(-c3csnn3)cc2)C1` [Example 492, (R)-4-acetyl-1-(4-isopropyl-benzenesulfonyl)-piperazine-2-carboxylic acid 4-[1,2,3]thiadiazol-4-yl-benzylamide], the IC50 is greater than 1000 nM in experiment [1] and 100 to 1000 nM in experiment [2].
As to `CC(C)c1ccc(CNC(=O)[C@H]2CN(c3cnn(CC(=O)O)c3)CCN2S(=O)(=O)c2ccc(OC(F)(F)F)cc2)cc1` [Example 493, {4-[(R)-3-(4-isopropyl-benzylcarbamoyl)-4-(4-trifluoromethoxy-benzenesulfonyl)-piperazin-1-yl]-pyrazol-1-yl}-acetic acid], the half-inhibitory concentration (IC50) in experiment [1] and in experiment [2] was 100 to 1000 nM throughout.
As to `CCCc1ccc(CNC(=O)[C@H]2CN(c3cc(C)c(C(N)=O)nn3)CCN2S(=O)(=O)c2ccc(OC(F)(F)F)cc2)cc1` [Example 494, 4-methyl-6-[(R)-3-(4-propyl-benzylcarbamoyl)-4-(4-trifluoromethoxy-benzenesulfonyl)-piperazin-1-yl]-pyridazine-3-carboxylic acid amide], the concentration for half-maximal inhibition (IC50) in experiment [1] and in experiment [2] was less than 100 nM throughout.
Regarding `CCC(F)(F)c1ccc(CNC(=O)[C@H]2CN(C(=O)Nc3nnc(C(=O)N4CC[C@@H](O)C4)s3)CCN2S(=O)(=O)c2ccc(OC(F)(F)F)cc2)cc1` [Example 495, (R)-4-(4-trifluoromethoxy-benzenesulfonyl)-piperazine-1,3-dicarboxylic acid 3-[4-(1,1-difluoro-propyl)-benzylamide] 1-{[5-((R)-3-hydroxy-pyrrolidine-1-carbonyl)-[1,3,4]thiadiazol-2-yl]-amide}], the 50% inhibitory concentration (IC50) was greater than 1000 nM in experiment [1] and 100 to 1000 nM in experiment [2].
Regarding `CCC(F)(F)c1ccc(CNC(=O)[C@H]2CN(C(=O)Nc3nnc(C(=O)N4CCC(O)CC4)s3)CCN2S(=O)(=O)c2ccc(OC(F)(F)F)cc2)cc1` [Example 496, (R)-4-(4-trifluoromethoxy-benzenesulfonyl)-piperazine-1,3-dicarboxylic acid 3-[4-(1,1-difluoro-propyl)-benzylamide] 1-{[5-(4-hydroxy-piperidine-1-carbonyl)-[1,3,4]thiadiazol-2-yl]-amide}], the 50% inhibitory concentration (IC50) in experiment [1] and in experiment [2] was greater than 1000 nM each time.
With `CCC(F)(F)c1ccc(CNC(=O)[C@H]2CN(C(=O)Nc3nnc(C(=O)N4CCOCC4)s3)CCN2S(=O)(=O)c2ccc(OC(F)(F)F)cc2)cc1` [Example 497, (R)-4-(4-trifluoromethoxy-benzenesulfonyl)-piperazine-1,3-dicarboxylic acid 3-[4-(1,1-difluoro-propyl)-benzylamide] 1-{[5-(morpholine-4-carbonyl)-[1,3,4]thiadiazol-2-yl]-amide}], the IC50 in experiment [1] and in experiment [2] was greater than 1000 nM in each case.
For `CCC(F)(F)c1ccc(CNC(=O)[C@H]2CN(C(=O)Cc3cn(C)cn3)CCN2S(=O)(=O)c2ccc(OC(F)(F)F)cc2)cc1` [Example 498, (R)-4-[2-(1-methyl-1H-imidazol-4-yl)-acetyl]-1-(4-trifluoromethoxy-benzenesulfonyl)-piperazine-2-carboxylic acid 4-(1,1-difluoro-propyl)-benzylamide], the half-inhibitory concentration (IC50) in experiment [1] and in experiment [2] was 100 to 1000 nM in each case.
`CCCc1ccc(CNC(=O)[C@H]2CN(c3nc(C)c(C(=O)O)s3)CCN2S(=O)(=O)c2ccc(OC(F)(F)F)c(CCC)c2)cc1` [Example 499, 4-methyl-2-[(R)-3-(4-propyl-benzylcarbamoyl)-4-(3-propyl-4-trifluoromethoxy-benzenesulfonyl)-piperazin-1-yl]-thiazole-5-carboxylic acid]: the concentration for half-maximal inhibition (IC50) in experiment [1] and in experiment [2] was less than 100 nM in each case.
In the case of `CC(C)(C)c1ccc(CNC(=O)[C@H]2CN(C(=O)Cc3ccncc3)CCN2S(=O)(=O)c2ccc(OC(F)(F)F)cc2)cc1` [Example 500, (R)-4-(2-pyridin-4-yl-acetyl)-1-(4-trifluoromethoxy-benzenesulfonyl)-piperazine-2-carboxylic acid 4-tert-butyl-benzylamide], the half-inhibitory concentration (IC50) in experiment [1] and in experiment [2] was less than 100 nM in each case.
Take `CC(C)(C)c1ccc(CNC(=O)[C@H]2CN(c3cnc(C(=O)O)cn3)CCN2S(=O)(=O)c2ccc(OC(F)(F)F)cc2)cc1` [Example 501, (R)-3-(4-tert-butyl-benzylcarbamoyl)-4-(4-trifluoromethoxy-benzenesulfonyl)-3,4,5,6-tetrahydro-2H-[1,2′]bipyrazinyl-5′-carboxylic acid]: the IC50 in experiment [1] and in experiment [2] was less than 100 nM in each case.
On to `CCC(F)(F)c1ccc(CNC(=O)[C@H]2CN(C(=O)Nc3ccnc(C(=O)O)c3)CCN2S(=O)(=O)c2ccc(OC(F)(F)F)cc2)cc1` [Example 502, 4-{[(R)-3-[4-(1,1-difluoro-propyl)-benzylcarbamoyl]-4-(4-trifluoromethoxy-benzenesulfonyl)-piperazine-1-carbonyl]-amino}-pyridine-2-carboxylic acid], for which the half-inhibitory concentration (IC50) in experiment [1] and in experiment [2] was 100 to 1000 nM throughout.
As for `CCC(F)(F)c1ccc(CNC(=O)[C@H]2CN(C(=O)Nc3ccnc(C(N)=O)c3)CCN2S(=O)(=O)c2ccc(OC(F)(F)F)cc2)cc1` [Example 503, (R)-4-(4-trifluoromethoxy-benzenesulfonyl)-piperazine-1,3-dicarboxylic acid 1-[(2-carbamoyl-pyridin-4-yl)-amide] 3-[4-(1,1-difluoro-propyl)-benzylamide]], the 50% inhibitory concentration (IC50) is 100 to 1000 nM in experiment [1] and less than 100 nM in experiment [2].
With `CCC(F)(F)c1ccc(CNC(=O)[C@H]2CN(C(=O)Nc3ccnc(C(=O)N(C)C)c3)CCN2S(=O)(=O)c2ccc(OC(F)(F)F)cc2)cc1` [Example 504, (R)-4-(4-trifluoromethoxy-benzenesulfonyl)-piperazine-1,3-dicarboxylic acid 3-[4-(1,1-difluoro-propyl)-benzylamide] 1-[(2-dimethylcarbamoyl-pyridin-4-yl)-amide]], the concentration for half-maximal inhibition (IC50) in experiment [1] and in experiment [2] was less than 100 nM throughout.
`CCCc1ccc(CNC(=O)[C@H]2CN(c3nc(C)c(CN(C)C)s3)CCN2S(=O)(=O)c2ccc(OC(F)(F)F)cc2)cc1` [Example 505, (R)-4-(5-dimethylaminomethyl-4-methyl-thiazol-2-yl)-1-(4-trifluoromethoxy-benzenesulfonyl)-piperazine-2-carboxylic acid 4-propyl-benzylamide]: the IC50 in experiment [1] and in experiment [2] was less than 100 nM throughout.
`CCCc1ccc(CNC(=O)[C@H]2CN(c3nc(C)c(CNC)s3)CCN2S(=O)(=O)c2ccc(OC(F)(F)F)cc2)cc1` [Example 506, (R)-4-(4-methyl-5-methylaminomethyl-thiazol-2-yl)-1-(4-trifluoromethoxy-benzenesulfonyl)-piperazine-2-carboxylic acid 4-propyl-benzylamide]: the IC50 in experiment [1] and in experiment [2] was less than 100 nM throughout.
With `CCCc1ccc(CNC(=O)[C@H]2CN(c3cnc(C(=O)OC)c(N)n3)CCN2S(=O)(=O)c2ccc(OC(F)(F)F)cc2)cc1` [Example 507, (R)-6′-amino-3-(4-propyl-benzylcarbamoyl)-4-(4-trifluoromethoxy-benzenesulfonyl)-3,4,5,6-tetrahydro-2H-[1,2′]bipyrazinyl-5′-carboxylic acid methyl ester], the IC50 in experiment [1] and in experiment [2] was less than 100 nM throughout.
In the case of `CCC(F)(F)c1ccc(CNC(=O)[C@H]2CN(C(=O)Cc3ccncc3)CCN2S(=O)(=O)c2ccc(OC(F)(F)F)cc2)cc1` [Example 508, (R)-4-(2-pyridin-4-yl-acetyl)-1-(4-trifluoromethoxy-benzenesulfonyl)-piperazine-2-carboxylic acid 4-(1,1-difluoro-propyl)-benzylamide], the IC50 in experiment [1] and in experiment [2] was less than 100 nM throughout.
In the case of `CCCc1ccc(CNC(=O)[C@H]2CN(c3nc(C)c(C(=O)O)s3)CCN2S(=O)(=O)c2ccc(OC(F)(F)F)c(F)c2)cc1` [Example 509, 2-[(R)-4-(3-fluoro-4-trifluoromethoxy-benzenesulfonyl)-3-(4-propyl-benzylcarbamoyl)-piperazin-1-yl]-4-methyl-thiazole-5-carboxylic acid], the half-maximal inhibitory concentration (IC50) in experiment [1] and in experiment [2] was less than 100 nM each time.
With `CCCc1ccc(CNC(=O)[C@H]2CN(c3nc(CO)cs3)CCN2S(=O)(=O)c2ccc(OC(F)(F)F)cc2)cc1` [Example 510, (R)-4-(4-hydroxymethyl-thiazol-2-yl)-1-(4-trifluoromethoxy-benzenesulfonyl)-piperazine-2-carboxylic acid 4-propyl-benzylamide], the IC50 in experiment [1] and in experiment [2] was less than 100 nM in each case.
